ChEMBL document CHEMBL1201862, “PubChem BioAssay data set” (2004)
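Growth conditions: 96-well plates. Treatment: test compound, 48 hours, 5 concentrations. Analysis: linear interpolation between bracketing concentrations; unreached endpoints set to highest concentration. GI50 = concentration required for 50% inhibition of growth.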 Activity calls are given as the source filed them. Rule as the data show it: active = GI50 up to about 1.1 µM and inactive = higher.

Tests used:
Test in all cases: NCI tumour cell line growth inhibition, 48 h
[1] = tested on: MDA-MB-435
[2] = tested on: SK-MEL-2
[3] = tested on: OVCAR-5
[4] = tested on: SN12C
[5] = tested on: M14
[6] = tested on: RPMI-8226
[7] = tested on: NCI-H460
[8] = tested on: COLO 205
[9] = tested on: IGROV-1
[10] = tested on: HCT-116
[11] = tested on: K562
[12] = tested on: HOP-92
[13] = tested on: MCF7
[14] = tested on: HOP-62
[15] = tested on: SK-MEL-5
[16] = tested on: NCI-H522
[17] = tested on: UACC-257
[18] = tested on: NCI/ADR-RES
[19] = tested on: NCI-H23
[20] = tested on: UACC-62

Measured: GI50

CN1C[C@H]2[C@@H](C1=O)[C@H](c1ccc([N+](=O)[O-])cc1)ON2C
inactive: [1] > 100 µM | [2] > 100 µM | [3] > 100 µM | [4] > 100 µM | [5] > 100 µM | [6] > 100 µM | [7] > 100 µM | [8] > 100 µM | [9] > 100 µM | [10] > 100 µM | [11] > 100 µM | [12] > 100 µM | [13] > 100 µM | [14] > 100 µM | [15] > 100 µM | [16] > 100 µM | [17] > 100 µM | [18] > 100 µM | [19] > 100 µM

Cc1ccc(C2=C(C#N)C(N)OC3=C2COc2ccccc23)cc1 (stereo not given)
inactive: [1] 51.9 µM | [20] 78 µM | [2] 26.6 µM | [3] 2.4 µM | [4] 18.6 µM | [5] > 100 µM | [6] > 100 µM | [7] 43.5 µM | [8] > 100 µM | [9] 57.8 µM | [10] 31.9 µM | [11] 80.7 µM | [12] 31.8 µM | [13] > 100 µM | [14] 15.6 µM | [15] 63 µM | [17] > 100 µM | [18] 30.3 µM | [19] 43.5 µM

O=C1/C(=C\c2cccc(Oc3ccccc3)c2)SC(c2ccccc2)N1Cc1ccccc1 (stereo not given)
inactive: [1] 23.3 µM | [20] 29.3 µM | [2] 18.2 µM | [3] 57.3 µM | [4] 33 µM | [5] 22.4 µM | [6] 24.3 µM | [7] 33.3 µM | [8] 10.3 µM | [10] 14.9 µM | [11] 29.9 µM | [12] 19 µM | [13] 26.1 µM | [14] 29.1 µM | [15] 14.8 µM | [16] 18.2 µM | [17] 26.6 µM | [18] 20.4 µM | [19] 22.7 µM

CCOC(=O)c1ccc(Nc2nc3cc(C(F)(F)F)ccc3nc2C(=O)OCC)cc1
inactive: [1] > 100 µM | [20] 66.5 µM | [3] > 100 µM | [4] > 100 µM | [5] 34.2 µM | [6] > 100 µM | [7] 74.3 µM | [8] 46.9 µM | [9] > 100 µM | [10] 34.2 µM | [11] 31 µM | [12] 50 µM | [13] > 100 µM | [14] 22 µM | [15] 28.3 µM | [16] > 100 µM | [17] > 100 µM | [18] > 100 µM | [19] 99.1 µM

c1ccc2c(c1)N=C(NC1CCCCC1)CCN2
inactive: [1] > 100 µM | [20] > 100 µM | [2] > 100 µM | [3] > 100 µM | [4] > 100 µM | [5] > 100 µM | [6] > 100 µM | [7] > 100 µM | [8] > 100 µM | [9] 33.1 µM | [10] > 100 µM | [11] 81.3 µM | [14] > 100 µM | [15] > 100 µM | [16] > 100 µM | [17] > 100 µM | [18] > 100 µM | [19] > 100 µM

O/N=C1/CCCCC1NO (stereo not given)
inactive: [1] > 100 µM | [20] > 100 µM | [2] > 100 µM | [3] > 100 µM | [4] > 100 µM | [5] > 100 µM | [6] > 100 µM | [7] > 100 µM | [8] > 100 µM | [9] > 100 µM | [10] > 100 µM | [11] > 100 µM | [13] > 100 µM | [14] > 100 µM | [15] > 100 µM | [17] > 100 µM | [18] > 100 µM | [19] > 100 µM

CC(=O)OC[C@H]1[C@@H]2C(CC[C@]13CO3)OC(=O)CC(C)[C@]2(C)CCc1ccoc1 (stereo not given in full)
inactive: [1] > 100 µM | [20] > 100 µM | [3] > 100 µM | [4] > 100 µM | [5] > 100 µM | [7] > 100 µM | [8] > 100 µM | [9] > 100 µM | [10] > 100 µM | [11] > 100 µM | [12] > 100 µM | [13] > 100 µM | [14] > 100 µM | [15] > 100 µM | [16] > 100 µM | [17] > 100 µM | [18] > 100 µM | [19] > 100 µM
